Data from publication PMC5398096 (Bioorganic & medicinal chemistry letters, 2017).
Like-named read-outs stand apart in the source and are kept apart here.

Columns and labels:
E. coli DHFR [1] = biological target: T1, E. coli DHFR (Escherichia coli, UniProt P0ABQ4); details: number in parentheses; at the concentration stated in the same cell (μM); cited from earlier work
A431 cancer cells [2] = details: read-out: A431 Cytotoxicity IC50; previously evaluated lead compounds; cited from earlier work
human DHFR = biological target: T2, human DHFR (Homo sapiens, UniProt P00374); details: number in parentheses; at the concentration stated in the same cell (μM); cited from earlier work
T2 sequence (P00374 1-187): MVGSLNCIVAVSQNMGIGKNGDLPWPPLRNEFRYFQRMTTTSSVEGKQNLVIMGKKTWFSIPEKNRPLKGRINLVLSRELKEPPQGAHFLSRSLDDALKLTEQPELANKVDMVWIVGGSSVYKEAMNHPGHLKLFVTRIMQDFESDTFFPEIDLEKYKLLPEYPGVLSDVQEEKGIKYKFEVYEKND

COLO-205 xenograft = COLO-205 xenograft mouse model, cited from earlier work
A431 cancer cells [3] = test: A431 cytotoxicity; type: cell-based, human; details: for A431 cytotoxicity assay: fold less active than cisplatin: relative to standard cisplatin
VEGFR-2 (Flk-1) = VEGFR-2 (Flk-1) (Homo sapiens, UniProt P35968); test: VEGFR-2 kinase inhibition, phosphotyrosine ELISA in whole cells; type: cell-based; details: for VEGFR-2 assay: fold less potent than semaxanib: relative to standard semaxanib
Chain of VEGFR-2 (Flk-1) (P35968 20-1356): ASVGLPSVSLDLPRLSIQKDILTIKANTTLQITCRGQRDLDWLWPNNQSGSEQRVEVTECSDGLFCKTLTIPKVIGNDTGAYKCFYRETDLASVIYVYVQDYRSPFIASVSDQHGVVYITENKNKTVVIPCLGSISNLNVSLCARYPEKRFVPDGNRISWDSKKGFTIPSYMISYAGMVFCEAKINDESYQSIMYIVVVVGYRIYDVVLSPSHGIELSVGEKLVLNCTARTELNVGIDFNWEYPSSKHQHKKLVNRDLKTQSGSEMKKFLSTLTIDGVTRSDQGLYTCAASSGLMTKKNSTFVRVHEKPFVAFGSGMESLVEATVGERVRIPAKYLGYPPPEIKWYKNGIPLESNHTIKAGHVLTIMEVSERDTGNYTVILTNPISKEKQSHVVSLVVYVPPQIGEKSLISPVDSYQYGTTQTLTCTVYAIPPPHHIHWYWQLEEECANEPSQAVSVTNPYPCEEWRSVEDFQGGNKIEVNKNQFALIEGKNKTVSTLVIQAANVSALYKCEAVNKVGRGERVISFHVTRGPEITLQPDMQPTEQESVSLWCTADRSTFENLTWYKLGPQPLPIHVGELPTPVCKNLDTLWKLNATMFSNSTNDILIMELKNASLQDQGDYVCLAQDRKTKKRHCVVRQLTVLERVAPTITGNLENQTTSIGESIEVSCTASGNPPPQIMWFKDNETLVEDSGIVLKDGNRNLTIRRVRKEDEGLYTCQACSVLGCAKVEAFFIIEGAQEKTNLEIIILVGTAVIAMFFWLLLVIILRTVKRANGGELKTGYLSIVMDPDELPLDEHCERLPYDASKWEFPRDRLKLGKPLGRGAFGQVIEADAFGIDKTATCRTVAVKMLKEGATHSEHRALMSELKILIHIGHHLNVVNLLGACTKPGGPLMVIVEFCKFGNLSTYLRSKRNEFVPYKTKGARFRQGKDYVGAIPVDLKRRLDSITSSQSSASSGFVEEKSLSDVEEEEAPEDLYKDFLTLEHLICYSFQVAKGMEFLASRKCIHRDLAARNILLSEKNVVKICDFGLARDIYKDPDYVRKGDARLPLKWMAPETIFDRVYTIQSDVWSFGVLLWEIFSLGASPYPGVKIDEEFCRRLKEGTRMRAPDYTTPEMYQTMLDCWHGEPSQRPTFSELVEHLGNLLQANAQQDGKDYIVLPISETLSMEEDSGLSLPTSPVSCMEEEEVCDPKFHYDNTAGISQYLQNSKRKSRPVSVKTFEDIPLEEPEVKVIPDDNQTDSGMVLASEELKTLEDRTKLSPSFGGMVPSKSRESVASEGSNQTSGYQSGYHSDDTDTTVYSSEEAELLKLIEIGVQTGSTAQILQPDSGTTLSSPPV

PDGFR-β = PDGFR-β (Homo sapiens, UniProt P09619); test: PDGFR-β kinase inhibition, phosphotyrosine ELISA in whole cells; type: cell-based; details: for PDGFR-β assay: fold less active than DMBI: relative to standard DMBI; for PDGFR-β assay: activity in words: even at 200 micromolar concentrations
Chain of PDGFR-β (P09619 33-1106): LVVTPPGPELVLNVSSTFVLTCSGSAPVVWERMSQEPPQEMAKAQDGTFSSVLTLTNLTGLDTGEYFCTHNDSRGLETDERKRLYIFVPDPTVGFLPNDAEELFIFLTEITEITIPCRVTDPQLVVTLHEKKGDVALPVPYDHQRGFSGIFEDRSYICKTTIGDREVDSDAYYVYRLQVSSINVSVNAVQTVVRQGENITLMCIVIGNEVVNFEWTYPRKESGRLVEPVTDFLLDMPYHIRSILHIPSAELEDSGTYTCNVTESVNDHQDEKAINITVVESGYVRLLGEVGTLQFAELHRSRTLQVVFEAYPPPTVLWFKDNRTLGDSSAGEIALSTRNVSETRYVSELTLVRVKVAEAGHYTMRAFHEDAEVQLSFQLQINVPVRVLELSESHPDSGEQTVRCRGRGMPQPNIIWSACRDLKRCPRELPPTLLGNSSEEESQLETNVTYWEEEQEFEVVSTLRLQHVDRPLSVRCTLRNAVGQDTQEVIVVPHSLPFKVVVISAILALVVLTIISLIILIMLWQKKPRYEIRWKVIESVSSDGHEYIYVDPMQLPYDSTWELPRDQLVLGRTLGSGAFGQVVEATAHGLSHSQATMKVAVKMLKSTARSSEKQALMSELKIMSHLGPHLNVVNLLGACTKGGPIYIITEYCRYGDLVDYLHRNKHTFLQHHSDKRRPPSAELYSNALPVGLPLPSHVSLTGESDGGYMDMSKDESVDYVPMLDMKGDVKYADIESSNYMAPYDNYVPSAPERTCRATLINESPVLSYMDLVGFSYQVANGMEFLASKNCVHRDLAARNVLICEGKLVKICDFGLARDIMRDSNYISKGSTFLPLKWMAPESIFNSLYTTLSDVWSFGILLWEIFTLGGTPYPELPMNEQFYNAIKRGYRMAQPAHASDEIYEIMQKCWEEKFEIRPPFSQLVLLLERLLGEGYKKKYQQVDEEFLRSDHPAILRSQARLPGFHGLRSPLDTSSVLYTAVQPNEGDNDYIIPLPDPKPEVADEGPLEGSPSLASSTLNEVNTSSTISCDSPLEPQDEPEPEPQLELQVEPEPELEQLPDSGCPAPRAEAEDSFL

EGFR = EGFR (Homo sapiens, UniProt P00533); test: EGFR kinase inhibition, phosphotyrosine ELISA in whole cells; type: cell-based; details: relative to standard 24
Chain of EGFR (P00533 25-1210): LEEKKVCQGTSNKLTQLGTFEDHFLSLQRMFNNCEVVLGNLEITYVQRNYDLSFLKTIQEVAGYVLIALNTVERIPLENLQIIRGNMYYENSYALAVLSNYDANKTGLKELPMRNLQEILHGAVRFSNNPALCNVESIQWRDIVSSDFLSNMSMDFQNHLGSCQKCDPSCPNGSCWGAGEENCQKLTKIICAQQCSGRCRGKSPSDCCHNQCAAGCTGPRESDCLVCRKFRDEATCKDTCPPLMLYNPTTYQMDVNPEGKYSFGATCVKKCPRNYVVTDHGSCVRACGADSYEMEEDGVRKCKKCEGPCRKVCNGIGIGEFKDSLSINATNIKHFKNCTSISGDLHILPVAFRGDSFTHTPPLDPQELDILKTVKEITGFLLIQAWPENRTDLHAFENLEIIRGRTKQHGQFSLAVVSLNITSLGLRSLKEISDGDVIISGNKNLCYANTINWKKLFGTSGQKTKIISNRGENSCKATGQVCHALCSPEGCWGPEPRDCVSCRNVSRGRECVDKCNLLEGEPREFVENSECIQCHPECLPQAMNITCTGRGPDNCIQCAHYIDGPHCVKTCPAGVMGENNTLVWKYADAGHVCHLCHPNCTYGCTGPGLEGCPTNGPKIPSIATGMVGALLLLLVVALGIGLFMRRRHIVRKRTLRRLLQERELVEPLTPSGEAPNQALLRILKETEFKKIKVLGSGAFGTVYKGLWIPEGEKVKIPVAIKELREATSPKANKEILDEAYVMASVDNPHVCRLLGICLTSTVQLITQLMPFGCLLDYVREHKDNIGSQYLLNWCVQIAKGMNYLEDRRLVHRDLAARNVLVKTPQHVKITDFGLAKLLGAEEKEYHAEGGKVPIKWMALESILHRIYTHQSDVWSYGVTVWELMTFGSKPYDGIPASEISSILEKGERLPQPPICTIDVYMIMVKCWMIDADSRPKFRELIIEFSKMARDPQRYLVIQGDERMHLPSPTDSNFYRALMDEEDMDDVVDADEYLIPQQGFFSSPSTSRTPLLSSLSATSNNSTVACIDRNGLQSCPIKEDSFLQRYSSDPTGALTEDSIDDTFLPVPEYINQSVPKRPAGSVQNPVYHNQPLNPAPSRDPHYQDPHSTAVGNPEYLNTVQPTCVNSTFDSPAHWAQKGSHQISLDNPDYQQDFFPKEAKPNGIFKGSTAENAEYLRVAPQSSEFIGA

E. coli TS = E. coli TS (Escherichia coli, UniProt P0A884); test: Thymidylate synthase; type: biochemical; details: number in parentheses; at the concentration stated in the same cell (μM)
Chain of E. coli TS (P0A884 whole entry): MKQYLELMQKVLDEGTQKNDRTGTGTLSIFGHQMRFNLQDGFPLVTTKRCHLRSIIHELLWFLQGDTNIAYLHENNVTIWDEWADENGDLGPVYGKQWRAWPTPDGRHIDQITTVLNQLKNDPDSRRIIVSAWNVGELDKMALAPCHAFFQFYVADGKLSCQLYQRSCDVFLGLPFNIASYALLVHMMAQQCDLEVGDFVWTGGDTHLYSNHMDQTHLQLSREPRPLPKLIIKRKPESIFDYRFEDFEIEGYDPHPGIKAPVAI

human TS = human TS (Homo sapiens, UniProt P04818); test: Thymidylate synthase; type: biochemical; details: relative to raltitrexed (RTX)
Chain of human TS (P04818 whole entry): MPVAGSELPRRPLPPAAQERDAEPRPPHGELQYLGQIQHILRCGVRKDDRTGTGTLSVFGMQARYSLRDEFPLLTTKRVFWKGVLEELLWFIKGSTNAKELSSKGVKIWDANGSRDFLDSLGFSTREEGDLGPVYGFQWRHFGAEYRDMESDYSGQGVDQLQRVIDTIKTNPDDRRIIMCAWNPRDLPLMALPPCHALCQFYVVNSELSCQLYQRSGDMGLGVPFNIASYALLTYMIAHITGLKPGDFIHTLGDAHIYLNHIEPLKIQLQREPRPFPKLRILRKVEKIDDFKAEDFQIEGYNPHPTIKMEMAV

E. coli DHFR [4] = biological target: T1, E. coli DHFR; test: Dihydrofolate reductase; type: biochemical; details: number in parentheses; at the concentration stated in the same cell (μM)

T1 sequence (P0ABQ4 whole entry): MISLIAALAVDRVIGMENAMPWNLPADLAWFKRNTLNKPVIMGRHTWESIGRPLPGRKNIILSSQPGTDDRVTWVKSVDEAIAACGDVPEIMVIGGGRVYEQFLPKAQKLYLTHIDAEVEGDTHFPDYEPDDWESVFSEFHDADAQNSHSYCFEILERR

Nc1nc(N)c2c(n1)[nH]c1cccc(Sc3ccccc3)c12 [Compound 1]
DHFR E. coli, percent inhibition at the stated concentration (E. coli DHFR [1]): 35%
IC50 (A431 cancer cells [2]): 49.2 ± 4.7 µM
DHFR Human, percent inhibition at the stated concentration (human DHFR): 17%
tumor growth inhibition (TGI) (COLO-205 xenograft; 35 mg/kg): 76%
liver metastases (COLO-205 xenograft; compared with DMBI and control): significantly decreased
tumor blood vessels (COLO-205 xenograft; compared with DMBI and control): significantly decreased

Cc1ccc(Sc2cccc3[nH]c4nc(N)nc(N)c4c23)cc1 [Compound 2]
DHFR E. coli, percent inhibition at the stated concentration (E. coli DHFR [1]): 27%
IC50 (A431 cancer cells [2]): 14.1 ± 2 µM
DHFR Human, percent inhibition at the stated concentration (human DHFR): 7%

Nc1nc(N)c2c(n1)[nH]c1cccc(Sc3ccc4ccccc4c3)c12 [Compound 3]
A431 cytotoxicity assay: fold less active than cisplatin (A431 cancer cells [3]): about 4 fold
VEGFR-2 assay: fold less potent than semaxanib (VEGFR-2 (Flk-1)): 13 fold
PDGFR-β assay: fold less active than DMBI (PDGFR-β): 24 fold
EGFR assay: fold less active than standard 24 (EGFR): 100 fold
TS E. coli, percent inhibition at the stated concentration (E. coli TS): 0%

Nc1nc(N)c2c(n1)[nH]c1cccc(Sc3cccc4ccccc34)c12 [Compound 4]
A431 cytotoxicity assay: activity in words (A431 cancer cells [3]; even at 200 micromolar concentration): inactive
VEGFR-2 assay: fold less potent than semaxanib (VEGFR-2 (Flk-1)): 16 fold
hTS assay: fold less active than RTX (human TS): 6 fold
PDGFR-β assay: fold less active than DMBI (PDGFR-β): about 16 fold
EGFR assay: fold less active than standard 24 (EGFR): 835 fold

COc1ccc(OC)c(Sc2cccc3[nH]c4nc(N)nc(N)c4c23)c1 [Compound 5]
A431 cytotoxicity assay: fold less active than cisplatin (A431 cancer cells [3]): about 4 fold
VEGFR-2 assay: fold less potent than semaxanib (VEGFR-2 (Flk-1)): equipotent
hTS assay: fold less active than RTX (human TS): 3 fold
PDGFR-β assay: activity in words (PDGFR-β): inactive
EGFR assay: fold less active than standard 24 (EGFR): 22 fold
DHFR E. coli, percent inhibition at the stated concentration (E. coli DHFR [4]): 0%

COc1ccc(Sc2cccc3[nH]c4nc(N)nc(N)c4c23)cc1 [Compound 6]
A431 cytotoxicity assay: fold less active than cisplatin (A431 cancer cells [3]): about 6 fold
VEGFR-2 assay: fold less potent than semaxanib (VEGFR-2 (Flk-1)): 15 fold
PDGFR-β assay: fold less active than DMBI (PDGFR-β): about 16 fold
EGFR assay: fold less active than standard 24 (EGFR): about 100 fold
TS E. coli, percent inhibition at the stated concentration (E. coli TS): 0%

Nc1nc(N)c2c(n1)[nH]c1cccc(Sc3ccc(Cl)cc3)c12 [Compound 7]
A431 cytotoxicity assay: fold less active than cisplatin (A431 cancer cells [3]): equipotent
VEGFR-2 assay: activity in words (VEGFR-2 (Flk-1)): inactive
hTS assay: fold more potent than RTX (human TS): equipotent
PDGFR-β assay: activity in words (PDGFR-β): inactive
EGFR assay: fold less active than standard 24 (EGFR): 40 fold
DHFR E. coli, percent inhibition at the stated concentration (E. coli DHFR [4]): 0%
